Reference: US20210261553A1, “FUSED TETRAZOLES AS LRRK2 INHIBITORS” (E-SCAPE Bio, Inc., priority 2018, published 2021)
pIC50: −log10 of the molar value.

How the values were obtained:
[1] = molecular target: T1, Recombinant wild type LRRK2 protein (Homo sapiens, UniProt Q5S007); test: LRRK2 kinase activity assay (LanthaScreen TR-FRET), wild type; type: biochemical; settings: 400 nM LRRKtide, 25 μM ATP, 60 min at room temperature; read-out: LRRK2 WT IC50
T1 construct: purchased Life Technologies PR8604B
Method: (§1) LRRK2 kinase activity was measured using a LanthaScreen™ Kinase Activity Assay from ThermoFisher Scientific. Recombinant wild type or G2019S-LRRK2 protein (Life Technologies, PR8604B or PV4881, respectively), was incubated with a fluorescein-labeled peptide substrate called LRRKtide that is based upon ezrin/radixin/moesin (ERM) (Life Technologies, PV4901) in the presence of ATP and serially diluted compound. After an incubation period of 1 hr, the phosphotransferase activity was stopped and a terbium-labelled anti-pERM antibody (Life Technologies, PV4899) was added to detect the phosphorylation of LRRKtide by measuring the time resolved-Forster resonant energy transfer (TR-FRET) signal from the terbium label on the antibody to the fluorescein tag on LRRKtide, expressed as the 520 nm/495 nm emission ratio. Compound-dependent inhibition of the TR-FRET signal was used to generate a concentration-response curve for IC50 determination.
(§2) The assay was carried out under the following protocol conditions: 1 mM compound in DMSO was serially diluted 1:3, 11 points in DMSO with a Biomek FX and 0.1 μL of the diluted compound was subsequently stamped into the assay plate (384-well format Lumitrac 200, Greiner, 781075) with an Echo Labcyte such that the final compound concentration in the assay was 10 μM to […]. Subsequently, 5 μL of 2× kinase solution (2.9 nM final concentration) was added to the assay plate in assay buffer composed of 50 mM Tris pH 8.5 (Sigma, T6791), 5 mM MgCl2 (Fluka, 63020), 1 mM EGTA (Sigma, E3889), 0.01% BRU-35 (Sigma, P1254) and 2 mM DTT. The reaction was started by addition of 2×ATP/LRRKtide solution in assay buffer such that the final concentration was 400 nM LRRKtide and 25 μM ATP. After 60 min incubation at room temperature, the reaction was stopped by addition of […] containing a final concentration of 2 nM anti-pERM antibody and […]. After a 30 min incubation at RT, the TR-FRET signal was measured on a Wallac 2104 EnVision® multilabel reader at an excitation wavelength of 340 nm and reading emission at 520 nm and 495 nm. The ratio of the 520 nm and 495 nm emission was used to analyze the data.

[2] = molecular target: T2, Recombinant G2019S-LRRK2 protein (Homo sapiens, UniProt Q5S007, G2019S); test: LRRK2 kinase activity assay (LanthaScreen TR-FRET), G2019S mutant; type: biochemical; settings: 400 nM LRRKtide, 25 μM ATP, 60 min at room temperature
T2 construct: purchased Life Technologies PV4881
Method: as §1, §2

T2 sequence (Q5S007 970-2527 G2019S limits assumed): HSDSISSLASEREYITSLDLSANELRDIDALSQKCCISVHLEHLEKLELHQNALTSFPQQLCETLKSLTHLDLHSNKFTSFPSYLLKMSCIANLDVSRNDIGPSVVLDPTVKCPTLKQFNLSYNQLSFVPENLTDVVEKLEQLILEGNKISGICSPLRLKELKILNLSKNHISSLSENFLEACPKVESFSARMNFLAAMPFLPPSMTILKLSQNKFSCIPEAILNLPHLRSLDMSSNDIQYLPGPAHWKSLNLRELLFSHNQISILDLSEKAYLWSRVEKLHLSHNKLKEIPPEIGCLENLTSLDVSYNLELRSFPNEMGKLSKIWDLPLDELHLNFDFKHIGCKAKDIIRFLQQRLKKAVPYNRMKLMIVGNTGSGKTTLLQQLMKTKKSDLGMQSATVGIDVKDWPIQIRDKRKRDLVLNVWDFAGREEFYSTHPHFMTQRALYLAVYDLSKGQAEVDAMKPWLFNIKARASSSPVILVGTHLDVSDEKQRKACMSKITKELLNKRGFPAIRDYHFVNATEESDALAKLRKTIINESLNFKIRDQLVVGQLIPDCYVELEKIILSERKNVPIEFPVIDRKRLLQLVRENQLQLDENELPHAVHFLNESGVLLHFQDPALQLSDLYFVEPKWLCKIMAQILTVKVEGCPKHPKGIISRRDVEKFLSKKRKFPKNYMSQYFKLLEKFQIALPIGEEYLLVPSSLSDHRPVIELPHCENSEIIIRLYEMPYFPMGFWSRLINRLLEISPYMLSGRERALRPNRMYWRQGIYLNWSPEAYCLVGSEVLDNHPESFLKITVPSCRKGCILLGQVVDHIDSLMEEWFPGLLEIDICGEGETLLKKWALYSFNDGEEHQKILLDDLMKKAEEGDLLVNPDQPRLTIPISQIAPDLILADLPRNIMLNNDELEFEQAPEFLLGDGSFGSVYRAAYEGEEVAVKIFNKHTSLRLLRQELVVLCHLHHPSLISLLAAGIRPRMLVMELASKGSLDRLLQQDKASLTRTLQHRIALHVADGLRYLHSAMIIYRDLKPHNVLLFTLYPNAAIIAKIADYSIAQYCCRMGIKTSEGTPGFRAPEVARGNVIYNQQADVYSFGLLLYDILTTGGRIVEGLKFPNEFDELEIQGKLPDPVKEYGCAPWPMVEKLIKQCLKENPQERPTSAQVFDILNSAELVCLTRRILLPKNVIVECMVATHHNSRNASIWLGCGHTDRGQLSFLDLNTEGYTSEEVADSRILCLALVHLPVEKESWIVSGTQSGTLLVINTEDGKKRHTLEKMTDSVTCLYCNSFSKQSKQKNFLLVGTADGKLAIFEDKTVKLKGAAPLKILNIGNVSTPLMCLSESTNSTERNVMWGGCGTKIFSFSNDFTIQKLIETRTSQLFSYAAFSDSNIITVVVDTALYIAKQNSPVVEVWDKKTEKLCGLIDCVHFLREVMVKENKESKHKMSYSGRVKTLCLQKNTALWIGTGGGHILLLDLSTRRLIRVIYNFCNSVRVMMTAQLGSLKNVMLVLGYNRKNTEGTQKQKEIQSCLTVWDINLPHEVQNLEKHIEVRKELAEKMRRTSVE
T1 sequence (Q5S007 whole entry): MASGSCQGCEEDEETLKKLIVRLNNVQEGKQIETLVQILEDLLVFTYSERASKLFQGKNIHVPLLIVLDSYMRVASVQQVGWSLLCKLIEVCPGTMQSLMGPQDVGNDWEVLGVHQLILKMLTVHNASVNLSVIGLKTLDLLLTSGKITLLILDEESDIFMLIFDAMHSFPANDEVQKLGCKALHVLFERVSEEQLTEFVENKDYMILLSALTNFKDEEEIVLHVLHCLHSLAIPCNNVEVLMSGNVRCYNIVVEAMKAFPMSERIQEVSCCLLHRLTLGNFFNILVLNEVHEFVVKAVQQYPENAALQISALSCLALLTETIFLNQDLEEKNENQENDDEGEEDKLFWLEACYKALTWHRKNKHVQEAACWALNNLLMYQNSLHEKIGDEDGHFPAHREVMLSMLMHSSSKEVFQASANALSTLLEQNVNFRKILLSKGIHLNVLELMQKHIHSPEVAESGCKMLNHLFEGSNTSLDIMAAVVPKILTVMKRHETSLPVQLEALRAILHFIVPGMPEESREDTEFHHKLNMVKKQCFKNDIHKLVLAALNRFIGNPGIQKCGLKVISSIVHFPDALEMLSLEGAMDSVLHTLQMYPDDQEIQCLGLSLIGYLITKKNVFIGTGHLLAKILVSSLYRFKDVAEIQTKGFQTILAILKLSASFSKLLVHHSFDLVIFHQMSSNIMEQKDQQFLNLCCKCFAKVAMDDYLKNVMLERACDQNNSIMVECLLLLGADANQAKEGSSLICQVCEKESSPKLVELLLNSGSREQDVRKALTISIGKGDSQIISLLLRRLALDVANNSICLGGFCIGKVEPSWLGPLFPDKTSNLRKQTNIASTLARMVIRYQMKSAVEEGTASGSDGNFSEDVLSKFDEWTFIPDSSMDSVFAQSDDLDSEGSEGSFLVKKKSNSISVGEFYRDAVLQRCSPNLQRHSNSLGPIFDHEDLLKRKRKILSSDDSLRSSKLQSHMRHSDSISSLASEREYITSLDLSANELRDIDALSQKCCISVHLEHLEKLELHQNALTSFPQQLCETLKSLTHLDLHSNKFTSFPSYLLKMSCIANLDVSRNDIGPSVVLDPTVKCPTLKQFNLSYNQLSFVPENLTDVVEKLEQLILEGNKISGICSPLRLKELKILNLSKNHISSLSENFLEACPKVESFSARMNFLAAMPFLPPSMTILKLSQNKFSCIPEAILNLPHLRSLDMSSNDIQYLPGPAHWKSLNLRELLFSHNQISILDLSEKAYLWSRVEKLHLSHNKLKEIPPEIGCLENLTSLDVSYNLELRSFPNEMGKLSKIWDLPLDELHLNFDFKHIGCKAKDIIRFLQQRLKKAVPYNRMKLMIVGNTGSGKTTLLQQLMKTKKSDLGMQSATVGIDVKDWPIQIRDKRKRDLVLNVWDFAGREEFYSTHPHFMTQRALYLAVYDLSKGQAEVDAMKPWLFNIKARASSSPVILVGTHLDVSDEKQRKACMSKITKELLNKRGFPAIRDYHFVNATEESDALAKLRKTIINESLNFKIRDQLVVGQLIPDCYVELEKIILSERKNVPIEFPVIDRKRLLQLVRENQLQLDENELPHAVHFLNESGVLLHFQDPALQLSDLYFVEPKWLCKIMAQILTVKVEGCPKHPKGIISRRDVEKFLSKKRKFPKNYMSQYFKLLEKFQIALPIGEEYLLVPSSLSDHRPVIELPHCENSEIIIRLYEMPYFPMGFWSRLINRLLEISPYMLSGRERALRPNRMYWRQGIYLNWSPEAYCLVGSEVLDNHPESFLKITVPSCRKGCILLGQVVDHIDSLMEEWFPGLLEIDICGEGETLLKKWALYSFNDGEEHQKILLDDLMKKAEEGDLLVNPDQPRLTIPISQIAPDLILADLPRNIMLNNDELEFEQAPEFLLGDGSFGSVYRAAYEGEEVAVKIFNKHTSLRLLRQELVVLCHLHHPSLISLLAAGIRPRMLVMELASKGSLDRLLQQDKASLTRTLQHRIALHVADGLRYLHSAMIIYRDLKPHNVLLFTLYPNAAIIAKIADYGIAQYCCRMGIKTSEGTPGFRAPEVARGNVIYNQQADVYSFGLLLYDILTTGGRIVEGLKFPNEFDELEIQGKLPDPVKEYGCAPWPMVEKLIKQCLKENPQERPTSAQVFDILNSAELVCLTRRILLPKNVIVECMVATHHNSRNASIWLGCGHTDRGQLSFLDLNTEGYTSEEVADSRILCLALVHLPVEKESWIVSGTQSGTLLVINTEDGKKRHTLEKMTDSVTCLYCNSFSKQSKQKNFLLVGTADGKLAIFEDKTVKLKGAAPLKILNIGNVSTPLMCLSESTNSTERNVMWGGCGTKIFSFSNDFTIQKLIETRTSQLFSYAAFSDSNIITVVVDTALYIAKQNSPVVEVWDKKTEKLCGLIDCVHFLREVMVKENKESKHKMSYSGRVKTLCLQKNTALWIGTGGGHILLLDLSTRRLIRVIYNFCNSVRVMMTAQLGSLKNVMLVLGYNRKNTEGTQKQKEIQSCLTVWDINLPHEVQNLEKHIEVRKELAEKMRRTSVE

| Compound | pIC50 [1] | pIC50 [2] |
| --- | --- | --- |
| COC(=O)c1c(NC(=O)C2=C(C)N(C)c3nnnn3C2)ccc2n[nH]cc12 [Example 61, Methyl 5-(4,5-dimethyl-4,7-dihydrotetrazolo[1,5-a]pyrimidine-6-carboxamido)-2H-indazole-4-carboxylate] | < 5.00 | < 5.00 |
| CC1=C(C(=O)Nc2cc3c[nH]nc3cc2N)Cn2nnnc2N1C [Example 21, N-(6-amino-2H-indazol-5-yl)-4,5-dimethyl-4,7-dihydrotetrazolo[1,5-a]pyrimidine-6-carboxamide] | 5.00 to 6.00 | 5.00 to 6.00 |
| CC1=C(C(=O)Nc2ccc3[nH]nc(-c4ccnc(N5CCOCC5)c4)c3c2)Cn2nnnc2N1C [Example 7, 4,5-Dimethyl-N-(3-(2-morpholinopyridin-4-yl)-1H-indazol-5-yl)-4,7-dihydrotetrazolo[1,5-a]pyrimidine-6-carboxamide] | ≥ 7.00 | ≥ 7.00 |
| CC1=C(C(=O)Nc2ccc3[nH]nc(C)c3c2)C(C)(C)n2nnnc2N1C [Example 60, 4,5,7,7-Tetramethyl-N-(3-methyl-2H-indazol-5-yl)-4,7-dihydrotetrazolo[1,5-a]pyrimidine-6-carboxamide] | 6.00 to 7.00 | ≥ 7.00 |
| CC1=C(C(=O)Nc2ccc3[nH]ncc3c2F)Cn2nnnc2N1C [Example 14, N-(4-fluoro-1H-indazol-5-yl)-4,5-dimethyl-4,7-dihydrotetrazolo[1,5-a]pyrimidine-6-carboxamide] | 5.00 to 6.00 | 6.00 to 7.00 |
| CC1=C(C(=O)Nc2ccc3[nH]nc(-c4ccncc4)c3c2)Cn2nnnc2N1C [Example 6, 4,5-dimethyl-N-(3-(pyridin-4-yl)-1H-indazol-5-yl)-4,7-dihydrotetrazolo[1,5-a]pyrimidine-6-carboxamide] | ≥ 7.00 | ≥ 7.00 |
| CC1=C(C(=O)Nc2ccc3c(c2)C(C)(C)NC3=O)[C@@H](C)n2nnnc2N1C [Example 49, (R)—N-(3,3-Dimethyl-1-oxoisoindolin-5-yl)-4,5,7-trimethyl-4,7-dihydrotetrazolo[1,5-a]pyrimidine-6-carboxamide] | < 5.00 | < 5.00 |
| CC1=C(C(=O)Nc2cc3c[nH]nc3cc2C(N)=O)Cn2nnnc2N1C [Example 20, N-(6-carbamoyl-2H-indazol-5-yl)-4,5-dimethyl-4,7-dihydrotetrazolo[1,5-a]pyrimidine-6-carboxamide] | 5.00 to 6.00 | 5.00 to 6.00 |
| CC(=O)Nc1[nH]nc2ccc(NC(=O)C3=C(C)N(C)c4nnnn4C3)cc12 [Example 28, N-(3-acetamido-2H-indazol-5-yl)-4,5-dimethyl-4,7-dihydrotetrazolo[1,5-a]pyrimidine-6-carboxamide] | < 5.00 | 5.00 to 6.00 |
| CC1=C(C(=O)Nc2ccc3[nH]nc(C(N)=O)c3c2)Cn2nnnc2N1C [Example 18, N-(3-carbamoyl-2H-indazol-5-yl)-4,5-dimethyl-4,7-dihydrotetrazolo[1,5-a]pyrimidine-6-carboxamide] | 6.00 to 7.00 | ≥ 7.00 |
| CCC1C(C(=O)Nc2ccc3[nH]ncc3c2)=C(C)N(C)c2nnnn21 (single isomer, unassigned) [Example 8a] | 6.00 to 7.00 | ≥ 7.00 |
| CC1=C(C(=O)Nc2ccc3[nH]nc(-c4cc(N5CCOCC5)ncn4)c3c2)Cn2nnnc2N1C [Example 9, 4,5-Dimethyl-N-(3-(6-morpholinopyrimidin-4-yl)-1H-indazol-5-yl)-4,7-dihydrotetrazolo[1,5-a]pyrimidine-6-carboxamide] | ≥ 7.00 | ≥ 7.00 |
| CC1=C(C(=O)Nc2ccc3[nH]ncc3c2)C(C)n2nnnc2N1C (stereo not drawn) [Example 2, N-(1H-indazol-5-yl)-4,5,7-trimethyl-4H,7H-[1,2,3,4]tetrazolo[1,5-a]pyrimidine-6-carboxamide] | 6.00 to 7.00 | ≥ 7.00 |
| CC1=C(C(=O)Nc2ccc3[nH]ncc3c2)C(C)(C)n2nnnc2N1C [Example 26, N-(2H-indazol-5-yl)-4,5,7,7-tetramethyl-4,7-dihydrotetrazolo[1,5-a]pyrimidine-6-carboxamide] | 5.00 to 6.00 | ≥ 7.00 |
| CC1=C(C(=O)Nc2cc3cn[nH]c3cn2)C(C)n2nnnc2N1C (racemic) [Example 23, 4,5,7-trimethyl-N-(1H-pyrazolo[3,4-c]pyridin-5-yl)-4,7-dihydrotetrazolo[1,5-a]pyrimidine-6-carboxamide] | 6.00 to 7.00 | ≥ 7.00 |
| CC1=C(C(=O)Nc2ccc3n[nH]c(Br)c3c2)[C@@H](C)n2nnnc2N1C [Example 22, (7R)—N-(3-bromo-2H-indazol-5-yl)-4,5,7-trimethyl-4,7-dihydrotetrazolo[1,5-a]pyrimidine-6-carboxamide] | ≥ 7.00 | ≥ 7.00 |
| CC1=C(C(=O)Nc2ccc3[nH]ncc3c2)Cn2nnnc2N1CCN1CCOCC1 [Example 4, N-(1H-Indazol-5-yl)-5-methyl-4-[2-(morpholin-4-yl)ethyl]-4H,7H-[1,2,3,4]tetrazolo[1,5-a]pyrimidine-6-carboxamide] | 5.00 to 6.00 | 5.00 to 6.00 |
| CC1=C(C(=O)Nc2ccc3c(c2)CC(=O)N3)Cn2nnnc2N1C [Example 29, 4,5-dimethyl-N-(2-oxoindolin-5-yl)-4,7-dihydrotetrazolo[1,5-a]pyrimidine-6-carboxamide] | – | 5.00 to 6.00 |
| CCC1C(C(=O)Nc2ccc3[nH]ncc3c2)=C(C)N(C)c2nnnn21 (racemic) [Example 8, 7-Ethyl-N-(1H-indazol-5-yl)-4,5-dimethyl-4H,7H-[1,2,3,4]tetrazolo[1,5-a]pyrimidine-6-carboxamide] | 6.00 to 7.00 | ≥ 7.00 |
| CC1=C(C(=O)Nc2ccc3[nH]c(=O)n(C)c3c2)[C@@H](C)n2nnnc2N1C [Example 47, (R)-4,5,7-Trimethyl-N-(3-methyl-2-oxo-2,3-dihydro-1H-benzo[d]imidazol-5-yl)-4,7-dihydrotetrazolo[1,5-a]pyrimidine-6-carboxamide] | 5.00 to 6.00 | ≥ 7.00 |
| CC1=C(C(=O)Nc2ccc3[nH]c(=O)[nH]c3c2)Cn2nnnc2N1C [Example 31, 4,5-dimethyl-N-(2-oxo-2,3-dihydro-1H-benzo[d]imidazol-5-yl)-4,7-dihydrotetrazolo[1,5-a]pyrimidine-6-carboxamide] | 5.00 to 6.00 | 6.00 to 7.00 |
| CC1=C(C(=O)Nc2ccc3[nH]ncc3c2)C(C)n2nnnc2N1C (single isomer, unassigned) [Example 2b] | 5.00 to 6.00 | 6.00 to 7.00 |
| CC1=C(C(=O)Nc2ccc3[nH]ncc3c2)Cn2nnnc2N1C(=O)N(C)C [Example 12, N^6-(1H-indazol-5-yl)-N^4,N^4,5-trimethyltetrazolo[1,5-a]pyrimidine-4,6(7H)-dicarboxamide] | 6.00 to 7.00 | ≥ 7.00 |
| CC1=C(C(=O)Nc2ccc3[nH]ncc3c2)Cn2nnnc2N1C [Example 1, N-(1H-Indazol-5-yl)-4,5-dimethyl-4H,7H-[1,2,3,4]tetrazolo[1,5-a]pyrimidine-6-carboxamide] | 6.00 to 7.00 | ≥ 7.00 |
| CC1=C(C(=O)Nc2ccc3[nH]nc(-c4ccncc4)c3c2)[C@@H](C)n2nnnc2N1C [Example 27, (R)-4,5,7-trimethyl-N-(3-(pyridin-4-yl)-1H-indazol-5-yl)-4,7-dihydrotetrazolo[1,5-a]pyrimidine-6-carboxamide] | ≥ 7.00 | ≥ 7.00 |
| CC1=C(C(=O)Nc2ccc3[nH]ncc3c2)C(C)n2nnnc2N1C (single isomer, unassigned) [Example 2a] | ≥ 7.00 | ≥ 7.00 |
